# Assays:
# Assay in all cases: cells
# [1] = tested on: human breast adenocarcinoma (MCF-7); type: cell-based; conditions: MCF-7, 72 h, SRB, mean ± SD
# Text: (§1) The BALB/3T3 cell line was purchased from the American Type Culture Collection (ATCC, Manassas, VA, USA), A549 and MCF-7 cell lines—from European Collection of Authenticated Cell Cultures (Salisbury, UK), LoVo cell line was purchased from the ATCC (ATCC, Manassas, VA, USA), and LoVo/DX by courtesy of Prof. E. Borowski (Technical University of Gdańsk, Gdańsk, Poland). All the cell lines are maintained in the Institute of Immunology and Experimental Therapy (IIET), Wroclaw, Poland. […] Human breast adenocarcinoma cell line was cultured in mixture of Eagle medium (IIET, Wroclaw, Poland), supplemented with 10% fetal bovine serum, 2 mM L-glutamine, 8 μg/mL insulin and 1% amino-acids (Sigma-Aldrich, Merck KGaA, Saint Louis, MO, USA). […] Murine embryonic fibroblast cells were cultured in Dulbecco medium (Life Technologies Limited, Paisley, UK), supplemented with 10% fetal bovine serum (GE Healthcare, Logan, UT, USA) and 2 mM glutamine (Sigma-Aldrich, Merck KGaA, Saint Louis, MO, USA). All culture media contained antibiotics: 100 U/mL penicillin and 100 μg/mL streptomycin (Polfa-Tarchomin, Warsaw, Poland). All cell lines were cultured during entire experiment in humid atmosphere at 37 °C and 5% CO2. […] The procedure is repeated every year or in the case of less frequently used lines: after thawing.
# (§2) Twenty-four hours before adding the tested compounds, all cell lines were seeded in 96-well plates (Sarstedt, Nümbrecht, Germany) in appropriate media with 10^4 cells per well. All cell lines were exposed to each tested agent at four different concentrations in the range 100–0.01 μg/mL for 72 h. […] Additionally, all cell lines were exposed to DMSO (solvent used for tested compounds) (POCh, Gliwice, Poland) at concentrations corresponding to those present in tested agents’ dilutions. After 72 h sulforhodamine B assay (SRB) was performed.
# (§3) After 72 h of incubation with the tested compounds, cells were fixed in situ by gently adding of 50 μL per well of cold 50% trichloroacetic acid TCA (POCh, Gliwice, Poland) and were incubated at 4 °C for one hour. Following, wells were washed four times with water and air dried. Next, 50 μL of 0.1% solution of sulforhodamine B (Sigma-Aldrich, Merck KGaA, Saint Louis, MO, USA) in 1% acetic acid (POCh, Gliwice, Poland) were added to each well and plates were incubated at room temperature for 0.5 h. After incubation time, unbound dye was removed by washing plates four times with 1% acetic acid whereas stain bound to cells was solubilized with 10 mM Tris base (Sigma-Aldrich, Steinheim, Germany). Absorbance of each solution was read at Synergy H4 Hybrid Multi-Mode Microplate Reader (BioTek Instruments, Inc., Winooski, VT, USA) at the 540 nm wavelength.
# (§4) Compounds at each concentration were tested in triplicates in single experiment and each experiment was repeated at least three times independently. The Resistance Index (RI) was defined as the ratio of IC50 for a given compound calculated for resistant cell line to that measured for its parental drug sensitive cell line (Table 1).
# [2] = tested on: human colon adenocarcinoma cell line (LoVo); type: cell-based; conditions: 72 h, SRB, mean ± SD
# Text: as §1, §2, §3, §4
# [3] = tested on: normal murine embryonic fibroblast cell line (BALB/3T3); type: cell-based; conditions: normal murine fibroblasts BALB/3T3, 72 h, SRB, mean ± SD
# Text: as §1, §2, §3, §4
# [4] = tested on: human lung adenocarcinoma (A549); type: cell-based; conditions: A549, 72 h, SRB, mean ± SD
# Text: as §1, §2, §3, §4
# [5] = tested on: doxorubicin-resistant subline (LoVo/DX); type: cell-based, human; conditions: 72 h, SRB, mean ± SD
# Text: as §1, §2, §3, §4
Compound,"IC50 ([1]; Homo sapiens, MCF7) [nM]",IC50 ([2]; Homo sapiens) [nM],IC50 ([3]; Mus musculus) [nM],IC50 ([4]; Homo sapiens) [nM],IC50 ([5]; Homo sapiens) [nM],IC50 [1] [nM],IC50 [2] [nM],IC50 [3] [nM],IC50 [4] [nM],IC50 [5] [nM]
"COc1c(I)c2c(c(OC)c1OC)-c1ccc(SC)c(=O)cc1[C@@H](NC(C)=O)CC2 [Compound 8, 4-iodothiocolchicine]",17 ± 6,7 ± 2,115 ± 44,11 ± 2,642 ± 84,,,,,
"COc1c(Br)c2c(c(OC)c1OC)-c1ccc(OC)c(=O)cc1[C@@H](NC(C)=O)CC2 [Compound 5, 4-bromocolchicine]",27 ± 8,84 ± 21,142 ± 73,105 ± 8,1550 ± 170,,,,,
"COc1c(Cl)c2c(c(OC)c1OC)-c1ccc(OC)c(=O)cc1[C@@H](NC(C)=O)CC2 [Compound 3, 4-chlorocolchicine]",23 ± 5,69 ± 12,138 ± 69,46 ± 35,784 ± 280,,,,,
"COc1cccc2c1C(=O)c1c(O)c3c(c(O)c1C2=O)C[C@@](O)(C(=O)CO)C[C@@H]3O[C@H]1C[C@H](N)[C@H](O)[C@H](C)O1 [Doxorubicin, reference compound]",,,166 ± 74,258 ± 44,4750 ± 990,,,,,
"COc1c(I)c2c(c(OC)c1OC)-c1ccc(OC)c(=O)cc1[C@@H](NC(C)=O)CC2 [Compound 7, 4-iodocolchicine]",98 ± 29,10 ± 2,135 ± 56,94 ± 6,2780 ± 450,,,,,
"N.N.[Cl][Pt][Cl] [Cisplatin, reference compound]",,,,,,10700 ± 753,4370 ± 730,3900 ± 1500,6370 ± 1410,5700 ± 630
COc1c(Cl)c2c(c(OC)c1OC)-c1ccc(SC)c(=O)cc1[C@@H](NC(C)=O)CC2 [Compound 4],22 ± 2,22 ± 2,22 ± 2,22 ± 2,111 ± 44,,,,,
"COc1c(Br)c2c(c(OC)c1OC)-c1ccc(SC)c(=O)cc1[C@@H](NC(C)=O)CC2 [Compound 6, 4-bromothiocolchine]",15 ± 2,14 ± 4,103 ± 89,10 ± 0.1,135 ± 12,,,,,

# From article PMC6262536 (Cells, 2018)
